Measurements as given in ChEMBL document CHEMBL3639041, “Respiratory formulations and compounds for use therein” (2015).

Experiments:
[1] = molecular target: Proto-oncogene tyrosine-protein kinase Src (Homo sapiens, UniProt P12931); test: (§1) Fluorescence Resonance Energy Transfer (FRET) Assay: The enzyme inhibitory activity of test compounds was determined by fluorescence resonance energy transfer (FRET) using synthetic peptides labelled with both donor and acceptor fluorophores (Z-LYTE, Invitrogen). Recombinant, phosphorylated p38 MAPK (MAPK12:Millipore) was diluted in HEPES buffer, mixed with compound at the desired final concentrations and incubated for 2 hr at RT. The FRET peptide (2 uM) and ATP (100 uM) were next added to the enzyme/compound mixture and incubated for 1 hr. Development reagent (protease) was added for 1 hr prior to detection in a fluorescence microplate reader. The site-specific protease only cleaves non-phosphorylated peptide and eliminates the FRET signal. Phosphorylation levels of each reaction were calculated using the ratio of coumarin emission (donor) over fluorescein emission (acceptor) with […].
[2] = molecular target: T1, Mitogen-activated protein kinase 12 (Homo sapiens, UniProt P53778); test: as §1
T1 sequence (P53778 whole entry): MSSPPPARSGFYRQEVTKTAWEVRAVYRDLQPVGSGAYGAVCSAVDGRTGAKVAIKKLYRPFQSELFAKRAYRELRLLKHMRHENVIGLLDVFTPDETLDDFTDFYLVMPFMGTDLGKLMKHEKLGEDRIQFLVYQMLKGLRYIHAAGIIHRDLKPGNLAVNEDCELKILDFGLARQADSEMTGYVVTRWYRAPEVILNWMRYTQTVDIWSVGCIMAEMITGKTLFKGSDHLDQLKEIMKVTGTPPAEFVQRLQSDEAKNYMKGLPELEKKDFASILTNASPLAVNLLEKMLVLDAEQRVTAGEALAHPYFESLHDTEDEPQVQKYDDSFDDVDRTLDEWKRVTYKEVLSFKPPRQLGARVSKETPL

[3] = molecular target: Tyrosine-protein kinase HCK (Homo sapiens, UniProt P08631); test: as §1

Row | SMILES | IC50 [1] [nM] | IC50 [2] [nM] | IC50 [3] [nM]
1 | Cc1ccc(-n2nc(C(C)C)cc2NC(=O)Nc2ccc(Oc3ccnc4[nH]c(=O)cnc34)c3ccccc23)cc1 | 8 | 39 | 4
2 | CC(C)(C)c1cc(NC(=O)Nc2ccc(Oc3ccnc4[nH]c(=O)cnc34)c3ccccc23)n(-c2ccc(Cl)c(Cl)c2)n1 | 6 | 89 | –
3 | Cc1ccc(-n2nc(C(C)(C)C)cc2NC(=O)Nc2ccc(Oc3ccnc4[nH]c(=O)cnc34)c3ccccc23)s1 | – | 41 | 3
